# Measured values taken from US8642642B2, “Heterocyclic arylsulphones suitable for treating disorders that respond to modulation of the serotonin 5HT6 receptor” (Abbott Laboratories, priority 2006, dated 2014).
# Counter-ions that a name gives are not always drawn.
# Target: T1, human 5-HT6 receptor (Homo sapiens, UniProt P50406)
# T1 construct: expressed in transfected cells
# Assay: Human 5-HT6 receptor binding assay (3H-LSD displacement)
# Details: membranes from HEK-293 cells, 2 nM 3H-LSD
# Experimental: The substance to be tested was either dissolved in methanol/Chremophor® (BASF-AG) or in dimethyl sulfoxide and then diluted with water to the desired concentration.
# The compounds were dissolved in a concentration of 10^−2 M or 10^−3 M in DMSO. Further dilutions were performed in incubation buffer.
# The procedure for the binding assay was based on the method of Monsma et al. (1993) Mol Pharmacol 43: 320-327. The binding reaction was carried out in a total volume of 0.250 ml for 60 min at 37° C. Membranes from HEK-293 cells stably expressing the human 5-HT6 receptor were incubated with 2 nM ^3H-LSD in the presence or absence of various concentrations of test compound for 60 min at 37° C. Non-specific binding was defined with 100 μM Serotonin (5-HT). Assays were performed in duplicate. Bound and free radioligand was separated by filtration and bound radioactivity determined by liquid scintillation counting.
# The specific ligand binding to the receptors was defined as the difference between the total binding and the nonspecific binding determined in the presence of an excess of unlabelled 5-HT. The results are expressed as a percent of control specific binding obtained in the presence of compound. The IC50 values (concentration causing a half-maximal inhibition of control specific binding) and Hill coefficients (nH) were determined by non-linear regression analysis of the competition curves using Hill equation curve fitting.
# The inhibition constants (Ki) were calculated from the Cheng Prusoff equation (Ki=IC50/(1+(L/KD)), where L=concentration of radioligand in the assay, and KD=affinity of the radioligand for the receptor).
# T1 sequence (P50406 whole entry): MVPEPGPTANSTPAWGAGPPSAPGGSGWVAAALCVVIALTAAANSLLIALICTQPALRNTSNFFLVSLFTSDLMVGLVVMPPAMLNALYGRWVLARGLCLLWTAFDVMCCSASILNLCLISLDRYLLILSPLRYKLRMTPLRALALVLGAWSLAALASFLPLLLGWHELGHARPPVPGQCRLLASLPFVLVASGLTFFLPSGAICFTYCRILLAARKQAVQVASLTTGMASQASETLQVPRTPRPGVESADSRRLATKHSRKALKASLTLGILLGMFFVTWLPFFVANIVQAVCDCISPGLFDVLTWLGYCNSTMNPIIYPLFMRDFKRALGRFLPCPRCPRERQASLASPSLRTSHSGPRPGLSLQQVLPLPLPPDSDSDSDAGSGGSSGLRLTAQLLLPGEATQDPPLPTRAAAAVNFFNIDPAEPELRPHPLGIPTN
row,SMILES,Ki [nM]
1,"CCCN1CC(c2ccc(NS(=O)(=O)c3cccc(F)c3)cc2)C1 [Example 45, 3-Fluoro-N-[4-(1-propyl-azetidin-3-yl)-phenyl]-benzenesulfonamide]",10 to 50
2,"O=S(=O)(Nc1cccc([C@@H]2CCN(Cc3ccccc3)C2)c1)c1cccc(C(F)(F)F)c1 [Example 65, N-[3-((S)-1-Benzyl-pyrrolidin-3-yl)-phenyl]-3-trifluoromethyl-benzene sulfonamide]",10 to 50
3,"CCCN1CC(c2ccc(NS(=O)(=O)c3cc(Cl)sc3Cl)cc2)C1 [Example 46, 2,5-Dichloro-thiophene-3-sulfonic acid [4-(1-propyl-azetidin-3-yl)-phenyl]-amide]",50 to 150
4,"CCCN1CC(c2ccc(NS(=O)(=O)c3cccc(Cl)c3Cl)cc2)C1 [Example 51, 2,3-Dichloro-N-[4-(1-propyl-azetidin-3-yl)-phenyl]-benzenesulfonamide]",50 to 150
5,"CCCN1CC(c2ccc(NS(=O)(=O)c3cccc(C)c3)cc2)C1 [Example 50, 3-Methyl-N-[4-(1-propyl-azetidin-3-yl)-phenyl]-benzenesulfonamide]",50 to 150
6,"O=S(=O)(Nc1ccc([C@@H]2CCNC2)cc1)c1cccc(C(F)(F)F)c1 [Example 101, N—((S)-4-Pyrrolidin-3-yl-phenyl)-3-trifluoromethyl-benzenesulfonamide]",10 to 50
7,"O=S(=O)(Nc1cccc(C2CNC2)c1)c1ccc(S(=O)(=O)c2ccccc2)s1 [Example 21, 5-Benzenesulfonyl-thiophene-2-sulfonic acid (3-azetidin-3-yl-phenyl)-amide]",50 to 150
8,"CCCN1C[C@H](c2ccc(NS(=O)(=O)c3cccc(C(F)(F)F)c3)cc2)C[C@H]1C [Example 94, N-[4-((3S,5R)-5-Methyl-1-propyl-pyrrolidin-3-yl)-phenyl]-3-trifluoromethyl-benzenesulfonamide hydrochloride]",10 to 50
9,"CCCN1CC[C@@H](c2ccc(NS(=O)(=O)c3cccc(OC(F)(F)F)c3)cc2)C1 [Example 1, 3-Trifluoromethoxy-N-[4-((S)-1-propyl-pyrrolidin-3-yl)-phenyl]-benzenesulfonamide and its hydrochloride]",10 to 50

# The next lines start with the values.
row,Ki [nM],SMILES
1,10 to 50,"CCCN1CC(c2ccc(NS(=O)(=O)c3cc(C)ccc3C)cc2)C1 [Example 43, 2,5-Dimethyl-N-[4-(1-propyl-azetidin-3-yl)-phenyl]-benzenesulfonamide]"
2,10 to 50,"O=S(=O)(Nc1cccc(C2CNC2)c1)c1cccs1 [Example 12, Thiophene-2-sulfonic acid (3-azetidin-3-yl-phenyl)-amide]"
3,1 to 10,"COc1ccc(OC)c(S(=O)(=O)Nc2cccc(C3CNC3)c2)c1 [Example 14, N-(3-Azetidin-3-yl-phenyl)-2,5-dimethoxy-benzenesulfonamide]"
4,1 to 10,"Cc1c(S(=O)(=O)Nc2cccc(C3CNC3)c2)sc2ccc(Cl)cc12 [Example 9, 5-Chloro-3-methyl-benzo[b]thiophene-2-sulfonic acid (3-azetidin-3-yl-phenyl)-amide]"
5,1 to 10,"COc1ccc(C)cc1S(=O)(=O)Nc1cccc(C2CNC2)c1 [Example 22, N-(3-Azetidin-3-yl-phenyl)-2-methoxy-5-methyl-benzenesulfonamide]"
6,1 to 10,"O=S(=O)(Nc1cccc([C@@H]2CCNC2)c1)c1cccc(OC(F)(F)F)c1 [Example 7, N—((S)-3-Pyrrolidin-3-yl-phenyl)-3-trifluoromethoxy-benzene sulfonamide]"
7,1 to 10,"Cc1c(S(=O)(=O)Nc2ccc(C3CNC3)cc2)sc2ccc(Cl)cc12 [Example 26, 5-Chloro-3-methyl-benzo[b]thiophene-2-sulfonic acid (4-azetidin-3-yl-phenyl)-amide]"
8,1 to 10,"O=S(=O)(Nc1ccc(C2CNC2)cc1)c1cccc(C(F)(F)F)c1 [Example 11, N-(4-Azetidin-3-yl-phenyl)-3-trifluoromethyl-benzenesulfonamide]"
9,1 to 10,"O=S(=O)(Nc1cccc(C2CNC2)c1)c1cccc(F)c1 [Example 15, N-(3-Azetidin-3-yl-phenyl)-3-fluoro-benzenesulfonamide]"
